Key:
[1] = tested on: Hepatoma 22 (H22) solid tumors; assay: Inhibition of Hepatoma 22 (H22) solid tumors in mice, peptides with different number of copies; assay type: in vivo, Mus Musculus Balb/c female mice; conditions: positive medicine, 20 mg/kg, intraperitoneal injection, 1 time/day, 5 days
[2] = tested on: Hepatoma 22 (H22) solid tumors; assay: Inhibition of Hepatoma 22 (H22) solid tumors in mice, five-copy peptides; assay type: in vivo, Mus Musculus Balb/c female mice; conditions: positive medicine, 20 mg/kg, intraperitoneal injection, 1 time/day, 5 days

## O=c1[nH]cc(F)c(=O)[nH]1 [Peptide 5-FU, 5-fluorouracil]
[1]
  Tumor inhibition rate (%): 51.62%
  Tumor weight: 1.135 ± 0.248 g
[2]
  Average tumor weight: 1.135 ± 0.248 g
  Tumor inhibition rate (%): 51.62%
